The values below come from patent US20060241100A1, “Acylaminobicyclic heteroaromatic compounds and uses thereof” (Pfizer Inc, priority 2005, published 2006).

For the assay, the system named is CB-1 receptor. As to the kind of experiment: CB-1 receptor binding ([3H]SR141716A displacement). Conditions: rat or human CB-1 protocol not specified; kind of value (Ki/IC50) not stated. Here is the method:
Compounds having an activity <20 nM are generally tested in the CB-1 GTPγ [^35S] Binding Assay and the CB-2 binding assay described below in the Biological Binding Assays section. Selected compounds are then tested in vivo using one or more of the functional assays described in the Biological Functional Assays section below. The compounds in the Examples above provided a range of CB-1 receptor binding activities from 0.1 to 500 nM.
The following assays were designed to detect compounds that inhibit the binding of [^3H] SR141716A (selective radiolabeled CB-1 ligand) and [^3H]5-(1,1-dimethylheptyl)-2-[5-hydroxy-2-(3-hydroxypropyl)-cyclohexyl]-phenol; radiolabeled CB-1/CB-2 ligand) to their respective receptors. […]
The test compounds were diluted in drug buffer (0.5% BSA, 10% DMSO and TME) and then 25 μl were added to a deep well polypropylene plate. […] In the morning the filters were counted on a Wallac Betaplate™ counter (available from PerkinElmer Life Sciences™, Boston, Mass.). […]
The test compounds were diluted in drug buffer (0.5% BSA, 10% DMSO and TME) and then 25 μl were added to a deep well polypropylene plate. […] In the morning the filters were counted on a Wallac Betaplate™ counter (available from PerkinElmer Life Sciences™, Boston, Mass.).

On to `CNC1CCCOc2c1nn(-c1ccccc1Cl)c2-c1ccc(Cl)cc1` (stereo not shown) [Example 1C], for which the “CB-1 receptor binding activity” value stood at 47 nM.
